Experimental data from patent US20110269626A1, “HERBICIDAL COMPOSITIONS COMPRISING HPPD-INHIBITORS AND METHODS OF CONTROLLING WEEDS IN TURFGRASSES” (priority 2008, published 2011).

Legend:
Assay type in all cases: in vivo
[1] = tested on: warm season turfgrasses; experiment: Safening of liquid mesotrione formulation on warm season turfgrasses (conclusion from Tables 1 and 2); conditions: safener applied in combination with a liquid formulation of mesotrione to warm season turfgrasses
Excerpt: (§1) A liquid formulation of mesotrione (Callisto®) was applied to bermudagrass (Cynodon dactylon×C. dactylon) and zoysia grass (Zoysia matrella) by spray application, with and without safeners, at various rates as show in the table below. Assessments were made at 7, 14 and 21 days after application, to determine percentage growth inhibition, an percentage toxicity (chlorosis and/or burning).

[2] = tested on: bermudagrass (Cynodon dactylon×C. dactylon); experiment: Spray application of liquid mesotrione formulation (Callisto) with and without safeners to bermudagrass; percentage toxicity (chlorosis and/or burning)
Excerpt: as §1

[3] = tested on: zoysia grass (Zoysia matrella); experiment: Spray application of liquid mesotrione formulation (Callisto) with and without safeners to zoysia grass; percentage toxicity (chlorosis and/or burning)
Excerpt: as §1

[4] = herbicide 140 g ai/ha, safener 70 g ai/ha or none, 7 DAA
[5] = herbicide 140 g ai/ha, safener 70 g ai/ha or none, 14 DAA
[6] = herbicide 140 g ai/ha, safener 70 g ai/ha or none, 21 DAA
[7] = herbicide 280 g ai/ha, safener 140 g ai/ha or none, 7 DAA
[8] = herbicide 280 g ai/ha, safener 140 g ai/ha or none, 14 DAA
[9] = herbicide 280 g ai/ha, safener 140 g ai/ha or none, 21 DAA

With `CNC(=O)Nc1ccc(S(=O)(=O)NC(=O)c2ccccc2OC)cc1` [Formula IV] as the compound, how does the safening [1] read?
Its safening is “Particularly good safening”.

`CS(=O)(=O)c1ccc(C(=O)C2C(=O)CCCC2=O)c([N+](=O)[O-])c1` [Mesotrione, 2-(2′-nitro-4′-methylsulphonylbenzoyl)-1,3-cyclohexanedione] was tested. Which Percentage toxicity [2, 4] did it give?
Its Percentage toxicity is 30%.

What about the Percentage toxicity [2, 5] of the same compound?
Its Percentage toxicity is 10%.

And the Percentage toxicity [2, 6]?
Its Percentage toxicity is 20%.

What about the Percentage toxicity [2, 7] of the same compound?
The Percentage toxicity was 60%.

And the Percentage toxicity [2, 8]?
The Percentage toxicity was 50%.

And the Percentage toxicity [2, 9]?
Its Percentage toxicity is 50%.

And the Percentage toxicity [3, 4]?
Its Percentage toxicity is 10%.

What about the Percentage toxicity [3, 5] of the same compound?
Its Percentage toxicity is 40%.

And the Percentage toxicity [3, 6]?
Its Percentage toxicity is 50%.

And the Percentage toxicity [3, 7]?
The Percentage toxicity was 15%.

And the Percentage toxicity [3, 8]?
The Percentage toxicity was 50%.

And the Percentage toxicity [3, 9]?
The Percentage toxicity was 70%.
